# Measurements published in patent publication US8092816B2, “Insecticidal compositions for control of general household pests” (priority 2004, dated 2012).
# What was measured:
# House Fly = experiment: Example 7: house fly knockdown and mortality, bifenthrin and imidacloprid; assay type: in vivo
# Source text: (§1) The following examples further illustrate the present invention, but, of course, should not be construed as in any way limiting its scope. The examples set forth certain biological data illustrating the efficacy of the compositions of the present invention in controlling general household pests. Each example embodies a separate test wherein the pests were randomly selected from a population at a random age. As a result, from example to example, the ages of the pests can be very different. This age difference potentially translates to different baselines for each example. Therefore, data should only be compared within the example and not from example to example due to the differences in age of the pests from example to example. Unless otherwise indicated, all parts, percentages, and the like are by weight. The spray chamber used in the examples was approximately 76 inches tall, 73 inches long and 31 inches deep with an adjustable shelf (approximately 22 inches deep) and a movable spray nozzle. The spray chambers were calibrated to deliver a volume of approximately 1 gallon of liquid per 1000 square feet of area at about 14 pounds per square inch of pressure. A DeVilbiss hand held sprayer (Atomizer model 152) manufactured by DeVilbiss located in Glendale Heights, Ill. was used in testing house flies and mosquitoes. The DeVilbiss was used to apply approximately 3-5 milliliters of product at about 10 pounds per square inch.
# The compositions of the present invention were tested for house fly activity in the following manner:
# Test compositions made up of TALSTARONE® MULTI-INSECTICIDE and a wettable powder of imidacloprid (MERIT) in distilled water were prepared that provided appropriate rates of application of combinations of bifenthrin and imidacloprid, as well as bifenthrin and imidacloprid alone.
# A DeVilbiss hand held sprayer was used to deliver the treatment solution at the desired volume and pressure. The house flies to be treated were collected and placed in screened 16 oz paper cups. The hand held sprayer was activated and the test compound was applied to each paper cup interior. House fly knockdown and mortality were measured.
# German cockroach = experiment: Example 8: German cockroach mortality, bifenthrin and thiamethoxam; assay type: in vivo
# Source text: as §1
# The compositions of the present invention were tested for German cockroach activity in the following manner:
# (§2) Test compositions made up of TALSTARONE® MULTI-INSECTICIDE and a water dispersible granular of thiamethoxam (CENTRIC) in distilled water were prepared that provided appropriate rates of application of combinations of bifenthrin and thiamethoxam, as well as bifenthrin and thiamethoxam alone.
# The spray chamber was then calibrated to deliver the treatment solution at the desired volume and pressure over the desired area on the chamber shelf. Spray chamber shelf height was adjusted to approximately 18 inches from the spray tip. The shelf was then covered with aluminum foil and the center of the shelf from front-to-back and end-to-end was determined. A desired number of 4.0″ sieve circles were marked on the aluminum foil with a permanent marker. The inside of a desired number of PVC rings were coated with a petroleum jelly/mineral oil mixture (1:2 ratio). The PVC rings were place on the sieve circles. 10 male German cockroaches were placed inside each PVC ring. The sprayer was activated and the test compound was applied to each PVC ring interior. German cockroach mortality was measured.
# Oriental cockroach = experiment: Example 10: Oriental cockroach knockdown and mortality, bifenthrin and thiamethoxam; assay type: in vivo
# Source text: as §1
# The compositions of the present invention were tested for Oriental cockroach activity in the following manner:
# as §2
# The spray chamber was then calibrated to deliver the treatment solution at the desired volume and pressure over the desired area on the chamber shelf. Spray chamber shelf height was adjusted to approximately 18 inches from the spray tip. The shelf was then covered with aluminum foil and the center of the shelf from front-to-back and end-to-end was determined. A desired number of 4.0″ sieve circles were marked on the aluminum foil with a permanent marker. The inside of a desired number of PVC rings were coated with a petroleum jelly/mineral oil mixture (1:2 ratio). The PVC rings were place on the sieve circles. 10 male Oriental cockroaches were placed inside each PVC ring. The sprayer was activated and the test compound was applied to each PVC ring interior. Oriental cockroach knockdown and mortality were measured.
# Red Imported Fire Ant = experiment: Example 16: red imported fire ant knockdown and mortality, bifenthrin and clothianidin; assay type: in vivo, Solenopsis invicta
# Source text: as §1
# The compositions of the present invention were tested for red imported fire ant activity in the following manner:
# Test compositions made up of TALSTARONE® MULTI-INSECTICIDE and a 16% a.i. water dispersible granular of clothianidin in distilled water were prepared that provided appropriate rates of application of combinations of bifenthrin and clothianidin, as well as bifenthrin and clothianidin alone.
# The spray chamber was then calibrated to deliver the treatment solution at the desired volume and pressure over the desired area on the chamber shelf. Spray chamber shelf height was adjusted to approximately 18 inches from the spray tip. The shelf was then covered with aluminum foil and the center of the shelf from front-to-back and end-to-end was determined. The red imported fire ants to be treated were collected and placed in screened 16 oz paper cups. The paper cups were placed onto the aluminum foil on the spray chamber shelf. The sprayer was activated and the test compound was applied to each paper cup interior. Red imported fire ant knockdown and mortality were measured.
# [1] = rate of appln. 10 PPM (0.001% by weight)
# [2] = rate of appln. 50 PPM (0.005% by weight)
structure (smiles),measurement,setting,value
"Cc1c(COC(=O)[C@@H]2[C@H](/C=C(\Cl)C(F)(F)F)C2(C)C)cccc1-c1ccccc1 (racemic) [A, 2-methylbiphenyl-3-ylmethyl (Z)-(1RS)-cis-3-(2-chloro-3,3,3-trifluoroprop-1-enyl)-2,2-dimethylcyclopropanecarboxylate]",Knockdown Rate @ 15 minute,"House Fly; 10 PPM, 0.001% by weight",0%
same,Knockdown Rate @ 30 minute,"House Fly; 10 PPM, 0.001% by weight",0%
same,Knockdown Rate @ 45 minutes,"House Fly; 10 PPM, 0.001% by weight",17%
same,Knockdown Rate @ 60 minutes,"House Fly; 10 PPM, 0.001% by weight",40%
same,Knockdown Rate @ 120 minutes,"House Fly; 10 PPM, 0.001% by weight",63%
same,Knockdown Rate @ 4 hours,"House Fly; 10 PPM, 0.001% by weight",50%
same,Mortality Rate @ 1 day,"House Fly; 10 PPM, 0.001% by weight",30%
same,Knockdown Rate @ 15 minute,"House Fly; 50 PPM, 0.005% by weight",0%
same,Knockdown Rate @ 30 minute,"House Fly; 50 PPM, 0.005% by weight",78%
same,Knockdown Rate @ 45 minutes,"House Fly; 50 PPM, 0.005% by weight",97%
same,Knockdown Rate @ 60 minutes,"House Fly; 50 PPM, 0.005% by weight",97%
same,Knockdown Rate @ 120 minutes,"House Fly; 50 PPM, 0.005% by weight",97%
same,Knockdown Rate @ 4 hours,"House Fly; 50 PPM, 0.005% by weight",97%
same,Mortality Rate @ 1 day,"House Fly; 50 PPM, 0.005% by weight",97%
same,Mortality Rate @ 60 minutes,"German cockroach; 10 PPM, 0.001% by weight",8%
same,Mortality Rate @ 120 minutes,"German cockroach; 10 PPM, 0.001% by weight",33%
same,Mortality Rate @ 1 day,"German cockroach; 10 PPM, 0.001% by weight",35%
same,Mortality Rate @ 2 day,"German cockroach; 10 PPM, 0.001% by weight",60%
same,Mortality Rate @ 4 days,"German cockroach; 10 PPM, 0.001% by weight",98%
same,Mortality Rate @ 60 minutes,"German cockroach; 50 PPM, 0.005% by weight",15%
same,Mortality Rate @ 120 minutes,"German cockroach; 50 PPM, 0.005% by weight",48%
same,Mortality Rate @ 1 day,"German cockroach; 50 PPM, 0.005% by weight",58%
same,Mortality Rate @ 2 day,"German cockroach; 50 PPM, 0.005% by weight",100%
same,Mortality Rate @ 4 days,"German cockroach; 50 PPM, 0.005% by weight",100%
same,Knockdown Rate @ 15 minute,"Oriental cockroach; 10 PPM, 0.001% by weight",0%
same,Knockdown Rate @ 30 minute,"Oriental cockroach; 10 PPM, 0.001% by weight",0%
same,Mortality Rate @ 60 minutes,"Oriental cockroach; 10 PPM, 0.001% by weight",0%
same,Mortality Rate @ 120 minutes,"Oriental cockroach; 10 PPM, 0.001% by weight",0%
same,Mortality Rate @ 4 hours,"Oriental cockroach; 10 PPM, 0.001% by weight",0%
same,Mortality Rate @ 1 day,"Oriental cockroach; 10 PPM, 0.001% by weight",0%
same,Knockdown Rate @ 15 minute,"Oriental cockroach; 50 PPM, 0.005% by weight",0%
same,Knockdown Rate @ 30 minute,"Oriental cockroach; 50 PPM, 0.005% by weight",0%
same,Mortality Rate @ 60 minutes,"Oriental cockroach; 50 PPM, 0.005% by weight",0%
same,Mortality Rate @ 120 minutes,"Oriental cockroach; 50 PPM, 0.005% by weight",0%
same,Mortality Rate @ 4 hours,"Oriental cockroach; 50 PPM, 0.005% by weight",0%
same,Mortality Rate @ 1 day,"Oriental cockroach; 50 PPM, 0.005% by weight",45%
same,Knockdown Rate @ 5 minute,Red Imported Fire Ant; [1],30%
same,Knockdown Rate @ 10 minute,Red Imported Fire Ant; [1],93%
same,Knockdown Rate @ 15 minute,Red Imported Fire Ant; [1],95%
same,Knockdown Rate @ 30 minutes,Red Imported Fire Ant; [1],100%
same,Mortality Rate @ 60 minutes,Red Imported Fire Ant; [1],65%
same,Mortality Rate @ 120 minutes,Red Imported Fire Ant; [1],100%
same,Mortality Rate @ 4 hours,Red Imported Fire Ant; [1],100%
same,Knockdown Rate @ 5 minute,Red Imported Fire Ant; [2],10%
same,Knockdown Rate @ 10 minute,Red Imported Fire Ant; [2],70%
same,Knockdown Rate @ 15 minute,Red Imported Fire Ant; [2],95%
same,Knockdown Rate @ 30 minutes,Red Imported Fire Ant; [2],100%
same,Mortality Rate @ 60 minutes,Red Imported Fire Ant; [2],100%
same,Mortality Rate @ 120 minutes,Red Imported Fire Ant; [2],100%
same,Mortality Rate @ 4 hours,Red Imported Fire Ant; [2],100%
